The results in this text go back to publication PMC2825274 (PLoS ONE, 2010).

≈ marks a conversion by molar mass, not a printed value. Where “and” joins values, the source holds several entries; their conditions need not be identical. Identical values can stand only once. Entries after “also recorded” stand apart in the source; their conditions may differ. Like-named read-outs stand apart in the source and are kept apart here.

The subject of series [1] is influenza A/California/04/09 (H1N1) (CA04). In words: microbe, parasite or virus in culture. The class given is cell-based, influenza A virus. The settings on record: for EC50: Influenza A virus, H1N1, MDCK, 72 h.
Series [2] concerns influenza A/California/05/09 (H1N1) (CA05). In words: microbe, parasite or virus in culture. As to conditions: for EC50: Influenza A virus, H1N1, MDCK, 72 h. The class given is cell-based, influenza A virus.
For series [3], the system named is 2009 H1N1 influenza strains A/California/04/09 (CA04), A/California/05/09 (CA05) and A/California/10/09 (CA10). In words: microbe, parasite or virus in culture. The class given is cell-based, influenza A virus. The settings on record: for EC50: Influenza A virus, H1N1, MDCK.
Series [4] has as its system A/New Caledonia/20/99 (H1N1) (NC20) susceptible. Description: microbe, parasite or virus in culture. The class given is cell-based, influenza A virus.

By EC50 is commonly meant the concentration giving half of the maximal effect. Low readings indicate a more potent agent, high ones a less potent agent. Turning to `NC12CC3CC(CC(C3)C1)C2` [Amantadine], in series [1], the “amantadine concentration with significant contribution to the synergy of the TCAD regimen” value was 3.2 µg/mL; the “contribution to the total synergy of the TCAD regimen” value amounted to 39%; the EC50 was 85 µM and 16 µg/mL. In series [2], the “amantadine concentration with significant contribution to the synergy of the TCAD regimen” value was no less than 0.1 µg/mL; the “contribution to the total synergy of the TCAD regimen” value worked out at 24%; the EC50 is 106 µM and 20 µg/mL. In series [3], the “antiviral activity as a single agent” value was “no significant antiviral activity”; the “fold reduction in susceptibility” value is given as greater than 250 fold; the “fold reduction of single-agent activity” value is listed as 100 fold; the EC50 is 16 µg/mL to 20 µg/mL and 85 µM to 106 µM. In addition, the EC50 in series [4] (Influenza A virus, H1N1, MDCK) worked out at 0.22 µg/mL (≈ 1.45 µM).
As to `CCC(CC)[C@H](NC(C)=O)[C@@H]1[C@H](O)[C@@H](C(=O)O)C[C@H]1N=C(N)N` [Peramivir], the “inhibition of virus-induced CPE as single agent” value (shortened to “inhibition of virus-induced CPE”) in series [3] is listed as “concentration-dependent inhibition of cytopathic effect”. In the series on MDCK cells, this compound displayed a TC50 greater than 100 µg/mL.
On to `NC(=O)c1ncn([C@@H]2O[C@H](CO)[C@@H](O)[C@H]2O)n1` [Ribavirin], for which the EC50 in series [1] is 28 µM and 7 µg/mL; in series [2] it was 23 µM and 5.6 µg/mL; in series [4] (Influenza A virus, H1N1, MDCK), 3.1 µg/mL (≈ 12.7 µM). Moreover, in series [3], the “inhibition of virus-induced CPE” value was “concentration-dependent inhibition of cytopathic effect”.
On to `CC(N)C12CC3CC(CC(C3)C1)C2` (stereo not drawn) [Rimantadine, rimantadine], for which the EC50 is > 51 µM and > 11 µg/mL in series [1]; > 55 µM and > 12 µg/mL in series [2]; > 12 µg/mL and > 55 µM in series [3]. Besides, the “inhibition of virus-induced CPE” value in series [3] is reported as “did not produce inhibition; also recorded: no activity”.
On to `CC(=O)N[C@H]1[C@H]([C@H](O)[C@H](O)CO)OC(C(=O)O)=C[C@@H]1N=C(N)N` [Zanamivir], for which the EC50 in series [1] was 350 nM and 0.12 µg/mL; in series [2], 230 nM and 0.078 µg/mL. For the same compound, the “inhibition of virus-induced CPE” value in series [3] is “concentration-dependent inhibition of cytopathic effect”. The TC50 with MDCK cells (dog) is on record as greater than 100 µg/mL.
On to Oseltamivir carboxylate, for which the “inhibition of virus-induced CPE” value in series [3] is recorded as “concentration-dependent inhibition of cytopathic effect”. Besides, the half-maximal effective concentration (EC50) in series [4] amounted to 0.20 µg/mL.
